Reference: patent US20250026724A1, “(1,4,5-TRISUBSTITUTED 1H-PYRAZOL-3-YL)OXY-2-ALKYLTHIOALKYL ACIDS AND -ALKYL ACID DERIVATIVES, SALTS THEREOF AND USE THEREOF AS ACTIVE HERBICIDAL INGREDIENTS” (BAYER AKTIENGESELLSCHAFT, priority 2021, published 2025)

Experiments:
Format in all cases: in vivo
[1] = system: Amaranthus retroflexus (AMARE); assay: Pre-emergence herbicidal effect, greenhouse pot trial; conditions: visual rating after about 3 weeks vs untreated controls
Excerpt: (§1) Seeds of monocotyledonous and dicotyledonous weed plants and crop plants are placed in plastic or organic planting pots and covered with soil. The compounds of the invention, formulated in the form of wettable powders (WP) or as emulsion concentrates (EC), are then applied to the surface of the covering soil as aqueous suspension or emulsion with addition of 0.5% additive at a water application rate equivalent to 600 1/ha. After the treatment, the pots are placed in a greenhouse and kept under good growth conditions for the trial plants. After about 3 weeks, the effect of the preparations is rated visually in comparison with untreated controls as percentages. For example, 100% activity=the plants have died, 0% activity=like control plants.
(§2) Tables A1 and A2 below show the effects of selected compounds of the general formula (I) according to Table 1 on various harmful plants and at an application rate corresponding to 320 g/ha or lower, which were obtained by the trial procedure specified above. The appendices “a” and “b” give differentiation by dosage used with otherwise the same harmful plants tested.
(§3) As shown by the results from Tables A1 and A2, compounds of the invention have good pre-emergence herbicidal efficacy against harmful plants, for example against harmful plants such as Amaranthus retroflexus (AMARE) and Polygonum convolvulus (POLCO).

[2] = system: Polygonum convolvulus (POLCO); assay: as above; conditions: visual rating after about 3 weeks vs untreated controls
Excerpt: as §1, §2, §3

[3] = system: Echinochloa crus-galli (ECHCG); assay: Post-emergence herbicidal action, greenhouse pot trial; conditions: Echinochloa crus-galli, 504 h, visual rating after about 3 weeks
In short: (§4)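 Sandy loam pots, greenhouse; one-leaf stage (2–3 wk after sowing); WP/EC in water, 0.5% additive, 600 l/ha spray volume; ≤320 g/ha; visual score vs untreated at ~3 wk, 0–100%.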

[4] = system: Abutilon theophrasti (ABUTH); assay: as above; conditions: Abutilon theophrasti, 504 h, 320 g/ha, visual rating after about 3 weeks, read-out: Post-emergence effect at 320 g/ha against ABUTH in %
In short: as §4

[5] = system: Matricaria inodora (MATIN); assay: as above; conditions: Tripleurospermum inodorum, 504 h, visual rating after about 3 weeks
In short: as §4

[6] = system: Setaria viridis (SETVI); assay: as above; conditions: Setaria viridis, 504 h, 320 g/ha, visual rating after about 3 weeks, read-out: Post-emergence effect at 320 g/ha against SETVI in %
In short: as §4

[7] = system: Alopecurus myosuroides (ALOMY); assay: as above; conditions: Alopecurus myosuroides, 504 h, 320 g/ha, visual rating after about 3 weeks, read-out: Post-emergence effect at 320 g/ha against ALOMY in %
In short: as §4

[8] = system: Viola tricolor (VIOTR); assay: as above; conditions: Viola tricolor, 504 h, 320 g/ha, read-out: Post-emergence effect against VIOTR
In short: as §4

[9] = system: Pharbitis purpurea (PHBPU); assay: as above; conditions: Ipomoea purpurea, 504 h, 320 g/ha, visual rating after about 3 weeks, read-out: Post-emergence effect at 320 g/ha against PHBPU in %
In short: as §4

[10] = system: Lolium rigidum (LOLRI); assay: as above; conditions: Lolium rigidum, 504 h, 320 g/ha, visual rating after about 3 weeks, read-out: Post-emergence effect at 320 g/ha against LOLRI in %
In short: as §4

[11] = system: Polygonum convolvulus (POLCO); assay: as above; conditions: Fallopia convolvulus, 504 h, visual rating after about 3 weeks
In short: as §4

[12] = system: Triticum aestivum (TRZAS); assay: Post-emergence crop plant compatibility, greenhouse pot trial; conditions: post-emergence; for Post-emergence effect against TRZAS (crop plant compatibility): in comparison to untreated controls; for Post-emergence effect at 320 g/ha against TRZAS in %: crop plant compatibility (effect on crop vs untreated controls)
In short: (§5)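 Visual % damage versus untreated plants (0% = like control, 100% = died), scored about 3 weeks after post-emergence spraying at the one-leaf stage. Compounds applied as WP or EC with 0.5% additive, 600 l/ha; letters a, b, c mark different doses.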

[13] = system: Brassica napus (BRSNW); assay: as above; conditions: 20 g/ha, in comparison to untreated controls
In short: as §5

[14] = system: Oryza sativa (ORYSA); assay: as above; conditions: in comparison to untreated controls
In short: as §5

[15] = system: Glycine max (GLXMA); assay: as above; conditions: in comparison to untreated controls
In short: as §5

[16] = system: Zea mays (ZEAMX); assay: as above; conditions: in comparison to untreated controls
In short: as §5

CCOC(=O)C(Oc1nn(-c2ccccc2F)c(-c2ccc(F)nc2)c1Br)SC (centres unmarked) [Example I-01]
Pre-emergence effect at 80 g/ha against AMARE in % ([1]; 80 g/ha): 90%
Pre-emergence effect at 320 g/ha against AMARE in % ([1]; 320 g/ha): 100%
Pre-emergence effect at 80 g/ha against POLCO in % ([2]; 80 g/ha): 80%
Pre-emergence effect at 320 g/ha against POLCO in % ([2]; 320 g/ha): 80%
pest or weed control at 80 g/ha ([3]; 80 g/ha, read-out: Post-emergence effect at 80 g/ha against ECHCG in %): 80%
pest or weed control at 320 g/ha ([3]; 320 g/ha, read-out: Post-emergence effect at 320 g/ha against ECHCG in %): 80%
pest or weed control at 320 g/ha [4]: 80%
pest or weed control at 80 g/ha ([5]; 80 g/ha, read-out: Post-emergence effect at 80 g/ha against MATIN in %): 80%
pest or weed control at 320 g/ha ([5]; 320 g/ha, read-out: Post-emergence effect at 320 g/ha against MATIN in %): 80%
pest or weed control at 320 g/ha [6]: 80%
pest or weed control at 320 g/ha [7]: 80%
pest or weed control at 320 g/ha [8]: 80%
pest or weed control at 320 g/ha [9]: 90%
pest or weed control at 320 g/ha [10]: 80%
pest or weed control at 80 g/ha ([11]; 80 g/ha, read-out: Post-emergence effect at 80 g/ha against POLCO in %): 80%
pest or weed control at 320 g/ha ([11]; 320 g/ha, read-out: Post-emergence effect at 320 g/ha against POLCO in %): 80%

CCOC(=O)C(Oc1nn(-c2ccc(Cl)cc2F)c(-c2ccc(F)cc2F)c1Br)SC (centres unmarked) [Example I-12]
Post-emergence effect against TRZAS (crop plant compatibility) ([12]; 20 g/ha): 0%
Post-emergence effect against TRZAS (crop plant compatibility) ([12]; 80 g/ha): 0%
Post-emergence effect at 320 g/ha against TRZAS in % [12]: 0%
Post-emergence effect against BRSNW (crop plant compatibility) [13]: 0%
Post-emergence effect against ORYSA (crop plant compatibility) ([14]; 20 g/ha): 0%
Post-emergence effect against ORYSA (crop plant compatibility) ([14]; 80 g/ha): 0%
Post-emergence effect against ORYSA (crop plant compatibility) ([14]; 320 g/ha): 0%
Post-emergence effect against GLXMA (crop plant compatibility) ([15]; 20 g/ha): 0%
Post-emergence effect against GLXMA (crop plant compatibility) ([15]; 80 g/ha): 0%
Post-emergence effect against GLXMA (crop plant compatibility) ([15]; 320 g/ha): 0%
Post-emergence effect against ZEAMX (crop plant compatibility) ([16]; 20 g/ha): 0%
Post-emergence effect against ZEAMX (crop plant compatibility) ([16]; 80 g/ha): 0%
Post-emergence effect against ZEAMX (crop plant compatibility) ([16]; 320 g/ha): 0%

CCOC(=O)C(Oc1nn(-c2ncccc2F)c(-c2ccc(Cl)cc2)c1Br)SC (centres unmarked) [Example I-15]
Post-emergence effect against TRZAS (crop plant compatibility) ([12]; 20 g/ha): 0%
Post-emergence effect against TRZAS (crop plant compatibility) ([12]; 80 g/ha): 0%
Post-emergence effect at 320 g/ha against TRZAS in % [12]: 10%
Post-emergence effect against BRSNW (crop plant compatibility) [13]: 0%
Post-emergence effect against ORYSA (crop plant compatibility) ([14]; 20 g/ha): 0%
Post-emergence effect against ORYSA (crop plant compatibility) ([14]; 80 g/ha): 0%
Post-emergence effect against ORYSA (crop plant compatibility) ([14]; 320 g/ha): 0%
Post-emergence effect against GLXMA (crop plant compatibility) ([15]; 20 g/ha): 0%
Post-emergence effect against GLXMA (crop plant compatibility) ([15]; 80 g/ha): 10%
Post-emergence effect against ZEAMX (crop plant compatibility) ([16]; 20 g/ha): 0%
Post-emergence effect against ZEAMX (crop plant compatibility) ([16]; 80 g/ha): 0%
Post-emergence effect against ZEAMX (crop plant compatibility) ([16]; 320 g/ha): 10%
